From patent US20170174633A1 (RESEARCH TRIANGLE INSTITUTE, priority 2014, published 2017) come the findings set out here.

Broadly, the EC50 is the concentration that produces a half-maximal response. The Ki is a dissociation constant, usually derived from enzyme kinetics or from competition with a known ligand.

Experiment [1] deals with T1, rNTS2 receptor (Rattus norvegicus, UniProt Q63384).
T1 construct: expressed in transfected cells
T1 sequence (Q63384 1-416): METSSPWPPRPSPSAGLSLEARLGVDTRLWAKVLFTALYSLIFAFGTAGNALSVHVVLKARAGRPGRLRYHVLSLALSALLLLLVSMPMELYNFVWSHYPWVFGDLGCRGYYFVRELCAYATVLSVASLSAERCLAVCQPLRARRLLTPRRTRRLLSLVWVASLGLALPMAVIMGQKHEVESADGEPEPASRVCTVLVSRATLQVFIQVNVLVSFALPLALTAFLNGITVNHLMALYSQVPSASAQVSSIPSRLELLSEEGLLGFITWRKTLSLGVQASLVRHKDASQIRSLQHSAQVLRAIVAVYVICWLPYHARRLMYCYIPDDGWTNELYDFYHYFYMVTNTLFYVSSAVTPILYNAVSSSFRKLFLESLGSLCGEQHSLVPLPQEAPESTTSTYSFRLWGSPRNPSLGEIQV
Briefly: Calcium mobilization assay for NTS2 receptor (FLIPR Tetra). The class given is cell-based. As to conditions: for NTS2 Emax % of 5b / EC50: FLIPR assay, ± SEM; for NTS2 Emax % of 5b: calcium release relative to 5b; for EC50: compound induced calcium release, CHO-kl-rNTS2 cells; for activity in NTS2 FLIPR assay: calcium release. The protocol:
(§1) The binding affinities of the test compounds for the rNTS1 and rNTS2 receptors listed in Tables 1 through 4 were determined using previously reported competitive binding assays^49. […] The cells used in the binding assay were CHO-kl cells (American Type Culture Collection) engineered to over-express either the rNTS1 or rNTS2 receptor. Measures of functional agonism and antagonism were obtained by measuring changes in intensity of a calcium-sensitive fluorescent dye as an indirect measure of changes in internal calcium concentrations. These measurements were performed using a FLIPR Tetra (NTS2) or a FlexStation II plate reader for NTS1 (Molecular Devices) and were analyzed using GraphPad Prism software.
CHO-kl-rNTS2 cells were maintained in DMEM/F12 supplemented with 10% FBS, pen/strep, 100 μg/ml normocin, and 400 μg/ml geneticin. For calcium mobilization assays, cells were plated at 25,000 cells/well in black, clear-bottom 96-well plates 24 hrs before the assay and incubated at 37° C., 5% CO2. 100 μl reconstituted Calcium 5 dye (Molecular Devices, diluted 1:20 in assay buffer (1×HBSS, 20 mM HEPES, 2.5 mM Probenicid, pH 7.4)) was added per well and plates were incubated for 45 min at 37° C., 5% CO2. […] Full-log serial dilutions of the test compounds were made at 10× the desired final concentration in 1% DMSO assay buffer and warmed to 37° C. After the pre-treatment incubation, fluorescence intensity was measured on a FLIPR Tetra fluorometric imaging plate reader (Molecular Devices). Relative Fluorescence Units (RFUs) were measured every second for 100 seconds (14 readings before compound addition to establish baseline fluorescence, 85 after) Exposure time 0.53 s, Gain=2000, Excitation intensity=30%, Gate open=10%. For antagonist assays, 1/10 volume of 10×concentration of the test compound dilutions in 10% DMSO in assay buffer was added to cells in lieu of the 10% DMSO only in assay buffer for the pre-treatment.
(§2) To determine EC50, IC50, and Ke values, data were fit to a three-parameter logistic equation using GraphPad Prism software. Ki values for radioligand binding assays were determined from ICso values using the equation of Cheng and Prusoff. All data are from at least three independent experiments run in duplicate wells.

The next experiment addresses T2, rNTS1 receptor (Rattus norvegicus, UniProt P20789).
T2 construct: expressed in transfected cells
Briefly: Calcium mobilization assay for NTS1 receptor (FLIPR assay, FlexStation II). The class given is cell-based. As to conditions: for Kb: read-out: NTS1 Ke. The protocol: as §1
CHO-kl-rNTS1 cells were maintained in DMEM/F12 medium supplemented with 10% fetal bovine serum (Gibco), 100 U/ml penicillin/100 ug/ml streptomycin, 100 ug/ml normocin (Invivogen), and 250 ug/ml geneticin. For calcium mobilization assays, cells were plated at 30,000 cells/well in black, clear-bottom 96-well plates 24 hrs before the assay and incubated at 37° C., 5% CO2. Prior to the assay, Calcium 5 dye (Molecular Devices) was reconstituted according to manufacturer instructions. The reconstituted dye was diluted 1:40 in assay buffer (lx HBSS, 20 mM HEPES, and 2.5 mM Probenicid (Sigma), pH 7.4). Growth media was removed and 200 ul of this diluted dye was added to each well. Plates were incubated for 45 min at 37° C., 5% CO2 after dye addition. […] Full-log serial dilutions of the test compounds were made at 10× the desired final concentration in 1% DMSO assay buffer and warmed to 37° C. After the pre-treatment incubation, fluorescence intensity was measured on a FlexStation II fluorometric imaging plate reader (Molecular Devices). Relative fluorescence units (RFU) were measured before (20 readings) and after (40 readings) the agonist compound addition for a total 60 second read time (Excitation=485 nm, Emission=525 nm, cutoff=515 nm). For antagonist assays, cells were treated with Calcium dye for 45 min at 37° C., 5% CO2 as with the agonist assays. Then the test antagonist compounds were added in 1% DMSO in assay buffer and the plate was incubated for 15 min at 37° C., 5% CO2.
as §2
Background: Calcium flux is commonly read through the fluorescence of an indicator in the cells.

In experiment [2] the target is T1, rNTS2 receptor. Kind of experiment: 125I-NT competitive binding assay, whole CHO-kl cells over-expressing rNTS2. The following applies: competition with 125I-NT; ± SEM; read-out: 125I-NT Binding NTS2 Ki. The protocol:
as §1
Briefly, cells were plated at 100,000 cells/well in 24-well plates in complete DMEM/F12 medium supplemented with 10% fetal bovine serum, 100 units of penicillin/mL, 100 μg of streptomycin/mL, 0.1 mg/mL of normocin, and 250 μg/mL geneticin. Cells were incubated at 37° C. with 5% CO2 and 95% humidity for 48 hrs. […] Cells were washed twice in Earle's buffer, extracted in 1 ml 0.1N NaOH and counted in a Packard Cobra II Gamma Counter for 1 minute.
as §2

[3] abbreviates: antagonism of NT induced calcium release, ± SEM.

Molecules are shown by their SMILES. Values joined by “and” are separate entries in the source; they are usually repeats but may differ in a detail not shown here. Equal entries are not always repeated.

T2 sequence (P20789 whole entry): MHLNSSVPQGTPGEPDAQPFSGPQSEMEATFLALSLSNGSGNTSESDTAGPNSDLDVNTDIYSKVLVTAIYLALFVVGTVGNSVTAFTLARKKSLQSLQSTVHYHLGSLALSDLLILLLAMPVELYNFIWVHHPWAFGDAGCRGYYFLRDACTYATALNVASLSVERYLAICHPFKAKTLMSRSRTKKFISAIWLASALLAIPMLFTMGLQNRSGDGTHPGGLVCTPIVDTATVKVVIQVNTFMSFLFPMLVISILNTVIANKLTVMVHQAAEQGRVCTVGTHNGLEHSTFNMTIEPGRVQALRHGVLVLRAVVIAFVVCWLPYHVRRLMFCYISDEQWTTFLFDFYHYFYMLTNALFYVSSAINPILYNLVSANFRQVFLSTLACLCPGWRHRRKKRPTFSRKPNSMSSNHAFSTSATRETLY

Consider `COc1cccc(OC)c1-c1cc(C(=O)NC2(C(=O)O)C3CC4CC(C3)CC2C4)nn1-c1ccnc2cc(Cl)ccc12` (stereo not shown) [5a, Meclinertant, reference compound], for which, on rNTS2 receptor [1], the “NTS2 Emax % of 5b” value was 100 % of 5b and 100 ± 3 % of 5b and 100 ± 15 % of 5b.
On to `COc1cccc(OC)c1-c1cc(C(=O)NC2(C(=O)O)C3CC4CC(C3)CC2C4)nn1-c1ccc(C(=O)N(C)CCCN(C)C)cc1C(C)C` (stereo not shown) [5b, reference compound], for which, at rNTS1 receptor (setting [3]), the “NTS1 Ke” value was 1.5 ± 0.6 nM and the Kb was 1.5 nM. Further, at rNTS2 receptor [1], the “NTS2 Emax % of 5b” value is reported as 100 ± 5 % of 5b and the concentration for a half-maximal effect (EC50) is 20 nM. Further, the “EC80 of 5b” value at rNTS2 receptor [1] (final concentration used in IC50 assays) stood at 73 nM. Besides, the Ki on rNTS2 receptor [2] was 6 nM.
In the case of `COc1cccc(OC)c1-c1cc(C(=O)N[C@H](C(=O)O)C2CCCCC2)nn1-c1ccnc2cc(Cl)ccc12` [14b, (2S)-({[1-(7-Chloroquinolin-4-yl)-5-(2,6-dimethoxyphenyl)-1H-pyrazol-3-yl]carbonyl}amino)-(cyclohexyl)ethanoic Acid], the Kb at rNTS1 receptor (setting [3]) is 23 ± 6 nM. On rNTS2 receptor [1], the “NTS2 Emax % of 5b” value was 86 % of 5b and 86 ± 3 % of 5b; the EC50 amounted to 217 ± 19 nM. On rNTS2 receptor [2], the inhibition constant Ki was determined as 644 nM.
Consider `COc1ccc(OC)c(-c2cc(C(=O)N[C@H](C(=O)O)C3CCCCC3)nn2-c2ccnc3cc(Cl)ccc23)c1` [15b, (2S)-({[1-(7-chloroquinolin-4-yl)-5-(2,5-dimethoxyphenyl)-1H-pyrazol-3-yl]carbonyl}amino) (cyclohexyl)ethanoic acid], for which the Kb on rNTS1 receptor (setting [3]) came to 1280 ± 544 nM. At rNTS2 receptor [1], the “NTS2 Emax % of 5b” value was 19 ± 3 % of 5b and the EC50 stood at 216 ± 29 nM. Further, on rNTS2 receptor [2], the Ki was 604 ± 141 nM.
Consider `COc1ccc(-c2cc(C(=O)N[C@H](C(=O)O)C3CCCCC3)nn2-c2ccnc3cc(Cl)ccc23)c(OC)c1` [16b, (2S)-({[1-(7-Chloroquinolin-4-yl)-5-(2,4-dimethoxyphenyl)-1H-pyrazol-3-yl]carbonyl}-amino)-(cyclohexyl)ethanoic Acid], for which, at rNTS2 receptor [1], the “NTS2 Emax % of 5b” value is 12 ± 3 % of 5b and the concentration giving a half-maximal response (EC50) was determined as 382 ± 33 nM. The Ki at rNTS2 receptor [2] stood at 1580 ± 505 nM.
On to `COc1ccccc1-c1cc(C(=O)N[C@H](C(=O)O)C2CCCCC2)nn1-c1ccnc2cc(Cl)ccc12` [17b, (2S)-({[1-(7-chloroquinolin-4-yl)-5-(2-methoxyphenyl)-1H-pyrazol-3-yl]carbonyl}amino)(cyclohexyl) ethanoic acid], for which the Kb at rNTS1 receptor (setting [3]) came to 1680 ± 527 nM. In addition, on rNTS2 receptor [1], the “NTS2 Emax % of 5b” value is 25 ± 2 % of 5b and the EC50 stood at 258 ± 14 nM. Further, the Ki on rNTS2 receptor [2] stood at 1420 ± 468 nM.
Turning to `O=C(N[C@H](C(=O)O)C1CCCCC1)c1cc(-c2c(F)cccc2F)n(-c2ccnc3cc(Cl)ccc23)n1` [18b, (2S)-({[1-(7-Chloroquinolin-4-yl)-5-(2,6-difluorophenyl)-1H-pyrazol-3-yl]carbonyl}amino) (cyclohexyl)ethanoic Acid], at rNTS2 receptor [1], the “NTS2 Emax % of 5b” value is reported as 15 ± 3 % of 5b and the EC50 came to 166 ± 3 nM. The Ki at rNTS2 receptor [2] came out at 1000 ± 227 nM.
As to `CCc1c(C(=O)N[C@H](C(=O)O)C2CCCCC2)nn(-c2ccnc3cc(Cl)ccc23)c1-c1c(OC)cccc1OC` [19b, (2S)-({[1-(7-Chloroquinolin-4-yl)-5-(2,6-dimethoxyphenyl)-4-ethyl-1H-pyrazol-3-yl]carbonyl}amino)(cyclohexyl)ethanoic Acid], the “NTS2 Emax % of 5b” value at rNTS2 receptor [1] was 15 % of 5b and 15 ± 1 % of 5b.
As for `COc1cccc(OC)c1-c1cc(C(=O)NC2(C(=O)O)CCCCCC2)nn1-c1ccnc2cc(Cl)ccc12` [20b, 1-({[1-(7-Chloroquinolin-4-yl)-5-(2,6-dimethoxyphenyl)-1H-pyrazol-3-yl]carbonyl}amino)cyclo-heptanecarboxylic Acid], the Kb at rNTS1 receptor (setting [3]) stood at 42 ± 6 nM. On rNTS2 receptor [1], the “NTS2 Emax % of 5b” value was 89 ± 5 % of 5b and the half-maximal effective concentration (EC50) is 21 ± 5 nM. Moreover, the Ki at rNTS2 receptor [2] was determined as 170 nM.
On to `COc1cccc(OC)c1-c1cc(C(=O)NC2(C(=O)O)CCCCC2)nn1-c1ccnc2cc(Cl)ccc12` [21b, 1-({[1-(7-Chloroquinolin-4-yl)-5-(2,6-dimethoxyphenyl)-1H-pyrazol-3-yl]carbonyl}amino)cyclo-hexanecarboxylic Acid], for which, on rNTS1 receptor (setting [3]), the Kb amounted to 157 ± 45 nM. Also, on rNTS2 receptor [1], the “NTS2 Emax % of 5b” value is 78 % of 5b and 78 ± 7 % of 5b; the 50% effective concentration (EC50) was found to be 29 ± 2 nM. At rNTS2 receptor [2], the Ki is 151 nM.
Regarding `COc1cccc(OC)c1-c1cc(C(=O)NC2(C(=O)O)CCCC2)nn1-c1ccnc2cc(Cl)ccc12` [22b, 1-({[1-(7-Chloroquinolin-4-yl)-5-(2,6-dimethoxyphenyl)-1H-pyrazol-3-yl]carbonyl}amino)cyclo-pentanecarboxylic Acid], the Kb at rNTS1 receptor (setting [3]) amounted to 222 ± 14 nM. Further, on rNTS2 receptor [1], the “NTS2 Emax % of 5b” value is 76 ± 4 % of 5b and the EC50 worked out at 20 ± 4 nM. The inhibitory constant (Ki) at rNTS2 receptor [2] was 102 nM.
`COc1ccccc1-c1cc(C(=O)NC2(C(=O)O)CCCCC2)nn1-c1ccnc2cc(Cl)ccc12` [23b, 1-({[1-(7-Chloroquinolin-4-yl)-5-(2-methoxyphenyl)-1H-pyrazol-3-yl]carbonyl}amino)cyclohexane carboxylic Acid]: on rNTS1 receptor (setting [3]), the Kb is 4550 ± 636 nM. Besides, at rNTS2 receptor [1], the “NTS2 Emax % of 5b” value was 35 % of 5b and 35 ± 1 % of 5b; the EC50 was determined as 62 ± 9 nM. The Ki on rNTS2 receptor [2] amounted to 533 ± 153 nM.
For `COc1cccc(OC)c1-c1cc(C(=O)N[C@H](C(=O)O)C2CCCCC2)nn1-c1cccc2ccccc12` [24b, (2S)-Cyclohexyl({[5-(2,6-dimethoxyphenyl)-1-naphthalen-1-yl-1H-pyrazol-3-yl]carbonyl}amino)-ethanoic Acid], on rNTS1 receptor (setting [3]), the Kb was determined as 58 ± 6 nM. In addition, at rNTS2 receptor [1], the “NTS2 Emax % of 5b” value was 45 % of 5b and 45 ± 1 % of 5b; the concentration for a half-maximal effect (EC50) came out at 159 ± 9 nM. The inhibition constant Ki on rNTS2 receptor [2] turned out to be 536 ± 20 nM.
As to `CC[C@H](C)[C@H](NC(=O)[C@H](Cc1ccc(O)cc1)NC(=O)[C@@H]1CCCN1C(=O)[C@H](CCCNC(=N)N)NC(=O)[C@@H](N)CCCNC(=N)N)C(=O)N[C@@H](CC(C)C)C(=O)O` [compound 1, Arg-Arg-Pro-Tyr-Ile-Leu, reference compound], the “activity in NTS2 FLIPR assay” value on rNTS2 receptor [1] is “neither NT nor the NT(8-13) fragment (1) showed any calcium release”.
Take `COc1cccc(OC)c1-c1cc(C(=O)NC2C3CC4CC(C3)CC2C4)nn1-c1ccnc2cc(Cl)ccc12` (stereo not shown) [compound 13, 1-(7-chloroquinolin-4-yl)-5-(2,6-dimethoxyphenyl)-N-tricyclo[3.3.1.13,7]dec-2-yl-1H-pyrazole-3-carboxamide]: at rNTS1 receptor (agonist and antagonist mode versus NT), the “activity in NTS1 FLIPR assay” value was “inactive”. The “activity in NTS2 FLIPR assay” value on rNTS2 receptor [1] is “inactive”.
